Laboratory results: PubChem BioAssay AID248 (DTP/NCI, 2004)
Several values for one entry are separate records, joined by “and”; a condition that tells them apart may be missing. Equal entries are not always repeated. Inconclusive results and toxic doses are left out. No stated cut-off is given here; in the data, active means T/C of 150% or more; inactive means T/C below 125%. Peptide text beside a SMILES is read from it.

System: L1210 leukemia ip in BDF1 mice, survival T/C
Test: NCI In Vivo Anticancer Drug Screen. Data for tumor model L1210 Leukemia (intraperitoneal) in B6D2F1 (BDF1) mice
Details: endpoint: mean survival time, higher = longer survival
In short: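 Antitumor effect is assessed in tumor-bearing animals. Survival in the compound arm is compared with a vehicle-dosed control arm and expressed as their quotient.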

[1] = dose: 100.0 mg/kg/injection, schedule: Q04DX002 (ip), vehicle: Klucel (hydroxypropylcellulose) (HPC)
[2] = dose: 200.0 mg/kg/injection, schedule: Q04DX002 (ip), vehicle: Klucel (hydroxypropylcellulose) (HPC)
[3] = dose: 100.0 mg/kg/injection, schedule: Q01DX001 (ip), vehicle: other
[4] = dose: 200.0 mg/kg/injection, schedule: Q01DX001 (ip), vehicle: other
[5] = dose: 400.0 mg/kg/injection, schedule: Q01DX001 (ip), vehicle: other
[6] = dose: 100.0 mg/kg/injection, schedule: Q01DX009 (ip), vehicle: saline with Tween-80
[7] = dose: 200.0 mg/kg/injection, schedule: Q01DX009 (ip), vehicle: saline with Tween-80
[8] = dose: 400.0 mg/kg/injection, schedule: Q01DX009 (ip), vehicle: saline with Tween-80
[9] = dose: 100.0 mg/kg/injection, schedule: Q01DX001 (ip), vehicle: saline
[10] = dose: 200.0 mg/kg/injection, schedule: Q01DX001 (ip), vehicle: saline
[11] = dose: 400.0 mg/kg/injection, schedule: Q01DX001 (ip), vehicle: saline
[12] = dose: 100.0 mg/kg/injection, schedule: Q04DX003 (ip), vehicle: saline with Tween-80

Measured: T/C

O=C1NC(=O)C(F)C(O)N1 (stereo not drawn)
inactive: dose: 5.0 mg/kg/injection, schedule: Q01DX001 (ip), vehicle: saline 102 % of control | dose: 10.0 mg/kg/injection, schedule: Q01DX001 (ip), vehicle: saline 101 % of control | dose: 20.0 mg/kg/injection, schedule: Q01DX001 (ip), vehicle: saline 96 % of control | dose: 40.0 mg/kg/injection, schedule: Q01DX001 (ip), vehicle: saline 101 % of control | dose: 80.0 mg/kg/injection, schedule: Q01DX001 (ip), vehicle: saline 108 % of control

O=Cc1c(Cl)n(-c2ccccc2)c2ccccc12
inactive: dose: 50.0 mg/kg/injection, schedule: Q04DX002 (ip), vehicle: Klucel (hydroxypropylcellulose) (HPC) 97 % of control | [1] 97 % of control | [2] 87 % of control

Cc1ccc(S(=O)(=O)N(c2ccccc2)C(C)C(=O)c2ccccc2)cc1 (stereo not drawn)
inactive: [3] 104 % of control | [4] 92 % of control | [5] 95 % of control

Cc1cccc(Nc2nc(N)nc(N)c2N=O)c1
inactive: dose: 100.0 mg/kg/injection, schedule: Q01DX Z (ip), vehicle: methylcellulose (MC) 102 % of control | [1] 101 % of control | dose: 200.0 mg/kg/injection, schedule: Q01DX Z (ip), vehicle: methylcellulose (MC) 97 % of control | [2] 94 % of control | dose: 400.0 mg/kg/injection, schedule: Q04DX002 (ip), vehicle: Klucel (hydroxypropylcellulose) (HPC) 101 % of control

CC(=O)Oc1c(Br)c(-c2cc([N+](=O)[O-])c(C)c([N+](=O)[O-])c2C)c(OC(C)=O)c(Br)c1-c1cc([N+](=O)[O-])c(C)c([N+](=O)[O-])c1C
inactive: [6] 104 % of control | [7] 91 % of control | [8] 88 % of control

CCOC(=O)C(CC(C(=O)OCC)C(=O)c1ccccc1)C(=O)c1ccccc1 (stereo not drawn)
inactive: [9] 92 % of control | [10] 90 % of control | [11] 97 % of control

CC(=O)Nc1ccc(/C=N/N2CCN(/N=C/c3ccc(NC(C)=O)cc3)CC2)cc1
inactive: [9] 86 % of control | [10] 96 % of control | [11] 92 % of control

CC(Oc1nc2c(c(=O)n(C)c(=O)n2C)n1C)C1CCCC1 (stereo not drawn)
inactive: dose: 50.0 mg/kg/injection, schedule: Q01DX001 (ip), vehicle: other 103 % of control | [3] 100 % of control

CN(C)NC(=O)C(c1ccccc1)c1ccccc1
inactive: dose: 25.0 mg/kg/injection, schedule: Q04DX003 (ip), vehicle: saline with Tween-80 100 % of control | dose: 50.0 mg/kg/injection, schedule: Q04DX003 (ip), vehicle: saline with Tween-80 97 % of control | [12] 92 % of control and 97 % of control

CC(NC(=O)C(CCC(=O)O)NC(=O)C(N)C(C)C)C(=O)NCC(=O)NC(C(=O)NC(CCC(=O)O)C(=O)NC(C)C(=O)NCC(=O)NCC(=O)O)C(C)C (stereo not drawn) (H-VEAGVEAGG-OH; configuration not given here)
inactive: dose: 50.0 mg/kg/injection, schedule: Q01DX001 (ip), vehicle: saline 93 % of control | [9] 95 % of control | [10] 91 % of control

CC1=[N+](C)C(C)(C)CC(C)O1 (stereo not drawn)
inactive: dose: 6.25 mg/kg/injection, schedule: Q01DX009 (ip), vehicle: saline 105 % of control | dose: 6.25 mg/kg/injection, schedule: Q04DX003 (ip), vehicle: saline 94 % of control | dose: 12.5 mg/kg/injection, schedule: Q01DX009 (ip), vehicle: saline 96 % of control | dose: 12.5 mg/kg/injection, schedule: Q04DX003 (ip), vehicle: saline 105 % of control | dose: 25.0 mg/kg/injection, schedule: Q01DX009 (ip), vehicle: saline 105 % of control | dose: 25.0 mg/kg/injection, schedule: Q04DX003 (ip), vehicle: saline 96 % of control

CCSc1ncnc2nc[nH]c12
inactive: dose: 75.0 mg/kg/injection, schedule: Q01DX001 (ip), vehicle: acetone 105 % of control | dose: 150.0 mg/kg/injection, schedule: Q01DX001 (ip), vehicle: acetone 105 % of control | dose: 300.0 mg/kg/injection, schedule: Q01DX001 (ip), vehicle: acetone 105 % of control

CCCC(SCC(=O)O)SCC(=O)O
inactive: dose: 100.0 mg/kg/injection, schedule: Q01DX009 (ip), vehicle: saline 93 % of control | dose: 100.0 mg/kg/injection, schedule: Q04DX002 (ip), vehicle: saline 97 % of control | dose: 200.0 mg/kg/injection, schedule: Q01DX009 (ip), vehicle: saline 100 % of control | dose: 200.0 mg/kg/injection, schedule: Q04DX002 (ip), vehicle: saline 100 % of control | dose: 400.0 mg/kg/injection, schedule: Q04DX002 (ip), vehicle: saline 95 % of control

CCC[CH2][Sn]([CH2]CCC)([O][Sn]([CH2]CCC)([CH2]CCC)[S]C#N)[S]C#N
inactive: dose: 6.25 mg/kg/injection, schedule: Q01DX009 (ip), vehicle: Klucel (hydroxypropylcellulose) (HPC) 95 % of control | dose: 12.5 mg/kg/injection, schedule: Q01DX009 (ip), vehicle: Klucel (hydroxypropylcellulose) (HPC) 97 % of control | dose: 25.0 mg/kg/injection, schedule: Q01DX009 (ip), vehicle: Klucel (hydroxypropylcellulose) (HPC) 89 % of control

C=CCN(CC=C)c1ncnc2[nH]ncc12
inactive: dose: 7.0 mg/kg/injection, schedule: Q01DX015 (ip), vehicle: carboxymethylcellulose (CMC) 91 % of control | dose: 16.0 mg/kg/injection, schedule: Q01DX015 (ip), vehicle: carboxymethylcellulose (CMC) 97 % of control | dose: 32.0 mg/kg/injection, schedule: Q01DX015 (ip), vehicle: carboxymethylcellulose (CMC) 93 % of control | dose: 62.0 mg/kg/injection, schedule: Q01DX015 (ip), vehicle: carboxymethylcellulose (CMC) 106 % of control | [9] 109 % of control | dose: 125.0 mg/kg/injection, schedule: Q01DX015 (ip), vehicle: carboxymethylcellulose (CMC) 89 % of control | [10] 101 % of control | [11] 93 % of control

N#Cc1cc(C#N)c(Cl)nc1N
inactive: dose: 100.0 mg/kg/injection, schedule: Q01DX009 (ip), vehicle: Klucel (hydroxypropylcellulose) (HPC) 94 % of control | dose: 100.0 mg/kg/injection, schedule: Q04DX003 (ip), vehicle: Klucel (hydroxypropylcellulose) (HPC) 97 % of control | dose: 200.0 mg/kg/injection, schedule: Q01DX009 (ip), vehicle: Klucel (hydroxypropylcellulose) (HPC) 95 % of control | dose: 200.0 mg/kg/injection, schedule: Q04DX003 (ip), vehicle: Klucel (hydroxypropylcellulose) (HPC) 95 % of control | dose: 400.0 mg/kg/injection, schedule: Q04DX003 (ip), vehicle: Klucel (hydroxypropylcellulose) (HPC) 106 % of control

CN(N=O)C(=O)Nc1ccc(F)cc1
inactive: dose: 6.25 mg/kg/injection, schedule: Q01DX Z (ip), vehicle: carboxymethylcellulose (CMC) 110 % of control | dose: 12.5 mg/kg/injection, schedule: Q01DX Z (ip), vehicle: carboxymethylcellulose (CMC) 103 % of control | dose: 25.0 mg/kg/injection, schedule: Q01DX Z (ip), vehicle: carboxymethylcellulose (CMC) 111 % of control | dose: 75.0 mg/kg/injection, schedule: Q01DX001 (ip), vehicle: carboxymethylcellulose (CMC) 120 % of control

O=C(NC(=O)C(C(=O)c1ccccc1)c1ccccc1)c1ccccc1 (stereo not drawn)
inactive: [3] 86 % of control | [4] 89 % of control | [5] 91 % of control

COc1cc(-c2nc3ccccc3c(=O)o2)cc(OC)c1OC
inactive: [6] 105 % of control | [12] 103 % of control | [7] 91 % of control | dose: 200.0 mg/kg/injection, schedule: Q04DX003 (ip), vehicle: saline with Tween-80 89 % of control | dose: 400.0 mg/kg/injection, schedule: Q04DX003 (ip), vehicle: saline with Tween-80 97 % of control

CC1CCC(C(C)C)C(OC(=O)Nc2ccc(S(=O)(=O)N(C)C)cc2)C1 (stereo not drawn)
inactive: [9] 94 % of control | [10] 89 % of control | [11] 91 % of control

CSc1cc(C)c(O)c(C)c1
inactive: dose: 100.0 mg/kg/injection, schedule: Q01DX009 (ip), vehicle: other 98 % of control | dose: 200.0 mg/kg/injection, schedule: Q01DX009 (ip), vehicle: other 101 % of control

COc1cc([N+](=O)[O-])ccc1C(=O)NC(CCC(=O)O)C(=O)O (stereo not drawn)
inactive: dose: 100.0 mg/kg/injection, schedule: Q01DX001 (ip), vehicle: Klucel (hydroxypropylcellulose) (HPC) 95 % of control | dose: 200.0 mg/kg/injection, schedule: Q01DX001 (ip), vehicle: Klucel (hydroxypropylcellulose) (HPC) 106 % of control | dose: 400.0 mg/kg/injection, schedule: Q01DX001 (ip), vehicle: Klucel (hydroxypropylcellulose) (HPC) 100 % of control

CCCCC[n+]1ccc(C(N)=O)cc1
inactive: dose: 100.0 mg/kg/injection, schedule: Q04DX003 (ip), vehicle: saline 105 % of control | dose: 200.0 mg/kg/injection, schedule: Q04DX003 (ip), vehicle: saline 100 % of control

CCOCC(C(=O)OCC)C(=O)OCC
inactive: [6] 111 % of control | [7] 111 % of control | [8] 97 % of control
